The solubility is how much of the substance goes into solution per volume. A high value points to a readily soluble substance.

Converted amounts (≈) assume the structure as drawn.

The source of these data is patent publication US4517179A, “Rapid dissolving, uniform drug compositions and their preparation” (priority 1984, dated 1985).

For series [1] the following is noted: 0.01N hydrochloric acid; cited from earlier work.
Series [2] in a line: Particle size distribution by screen analysis. The series is classed as physicochemical. As to conditions: for particle size d16%: 16 weight percent; for particle size d50%: 50 weight percent; for particle size d84%: 84 weight percent. On the procedure: where d is the particle diameter in μm at the indicated percentage by weight and σg is the geometric standard deviation.
The particle size distributions of drugs and excipients were determined by a screen analysis technique. A 5 gm sample of each test material was placed on the top screen of a set of six US standard screens of an Allen Bradley Sonic Sifter. The screens were pulsed for 15 minutes. The following screens were used: 80 mesh (180 μm), 100 mesh (150 μm), 140 mesh (106 μm), 200 mesh (75 μm), 270 mesh (53 μm) and 400 mesh (38 μm). The weights of the fractions retained on the screens were obtained. Particle sizes (d) at specific weight percents (16, 50, and 84) were obtained from a log probability plot of the data as described by Edmundson (Advances in Pharmaceutical Sciences, Bean, H.S. et al. Editors, Academic, London, England p. 95, 1967). These particle sizes are described as d16, d50, and d84.
The slopes of the lines from the plots were calculated to give the geometric standard deviation (σg).

For series [3] the following is noted: result from metolazone usage; cited from earlier work.
A short description of the next series: Water solubility. The series is classed as physicochemical. The note with it: for solubility: water.
Setting [4] is: listed as fine-milled metolazone.
Where [5] appears, read: listed as monocrystalline metolazone.

In the case of `Cc1ccccc1N1C(=O)c2cc(S(N)(=O)=O)c(Cl)cc2NC1C` (centres unmarked) [amorphous and metastable metolazone], the “dissolution rate relative to the stable modification (mp. 267°-270° C.)” value in series [1] is listed as “about 8 times faster”.

For the molecule `Nc1nc(N)c2nc(-c3ccccc3)c(N)nc2n1` [triamterene], in series [2], the “particle size d16%” value was determined as 76 μm, the “particle size d50%” value came out at 41 μm and the “particle size d84%” value came to 17 μm.

With `Cc1ccccc1N1C(=O)c2cc(S(N)(=O)=O)c(Cl)cc2NC1C` (centres unmarked) [metolazone, 2-methyl-3-o-tolyl-6-sulfamyl-7-chloro-1,2,3,4-tetrahydro-4-quinazolinone], the “particle size d16%” value in series [2] (setting [4]) is 155 μm; in series [2] (listed as milled metolazone) it was 94 μm; in series [2] (setting [5]) it was 460 μm. Besides, the “particle size d50%” value is 86 μm in series [2] (setting [4]), 56 μm in series [2] (listed as milled metolazone) and 190 μm in series [2] (setting [5]). The “particle size d84%” value turned out to be 48 μm in series [2] (setting [4]), 34 μm in series [2] (listed as milled metolazone) and 83 μm in series [2] (setting [5]). For the same molecule, in series [3], the side effects result was “hypokalemia”. Besides, the water solubility entry in the series “Water solubility” (25° C.) is “approximately 60.3 mcg/ml”. Also, the solubility in “Water solubility” (25° C.) is about 60 µg/mL (≈ 164 µM); in the series “Water solubility” (36° C.), about 100 µg/mL (≈ 273 µM).
